Assay results taken from patent US20170248578A1, “ANTI-CANCER AGENT SENSITIVITY-DETERMINING MARKER” (KEIO UNIVERSITY, priority 2014, published 2017).
Where “and” joins values, the source holds several entries; their conditions need not be identical. Equal entries are not always repeated.

Key:
Type in all cases: cell-based, human
[1] = test system: Ls174T into which siRNA had been introduced; assay: Sensitivity to oxaliplatin after introduction of siRNA, MTS assay; conditions: for sensitivity to oxaliplatin compared to the case where the control siRNA had been introduced: 150 pmol siRNA per well
Description: (§1) The aforementioned nine human colorectal cancer cell lines were respectively inoculated onto a 96 well plate at a density of 1,500 cells/well, and after 24 hours, oxaliplatin was added thereto. The cell survival rate after 48 hours of drug exposure was evaluated by the MTS assay (CellTiter96™ AQueous One Solution Cell Proliferation Assay, Promega), and the IC50 values were determined from the absorbance values. Regarding the drug exposure conditions, eleven conditions such as Control (0 μM), 0.001 μM, 0.01 μM, 0.1 μM, 0.3 μM, 1 μM, 3 μM, 10 μM, 30 μM, 100 μM, and 1,000 μM were used. The evaluation of sensitivity was performed three times with cells of different passage numbers, by measuring three samples each for the respective cell lines, drug exposure time, and drug exposure conditions in a single time test. An analysis was carried out based on the survival rate calculated from the results of the MTS assay.
(§2) Among the nine kinds of colorectal cancer cell lines described in Test Example 1, Ls174T was used as an oxaliplatin-high-sensitivity cell line, HCT116 was used as a moderate-sensitivity cell line, and HT29 and DLD-1 were used as low-sensitivity cell lines.
(§3) Each of the human colorectal cancer cell lines was inoculated into a 6-well plate at a density of 1×10^5 cells/well, and after 24 hours, the medium was replaced with serum-free DMEM medium (Wako, 044-29765). A solution obtained by dissolving 150 pmol per well of each of the siRNAs indicated in Table 8 in 250 μL of Opti MEM (GIBCO, No. 319985) was mixed with a solution obtained by mixing 4.5 μL of Lipofectamin RNAiMAX Reagent (Invitrogen, No. 13778-150) and 250 μL of Opti MEM (GIBCO, No. 319985). The resultant mixture was incubated for 10 to 20 minutes. After incubation, 500 μL each of the mixture was added to each well of the 6-well plate on which the human colorectal cancer cell lines were cultured, and the medium in each well was replaced with a serum-added DMEM medium (Wako, 044-29765) 4 to 6 hours after the addition. The cells were collected 24 hours after the addition of siRNA.
(§4) Regarding the control siRNA, siRNA of No. 4390843 of Life Technologies, Inc. was used.
(§5) Measurement of the sensitivity to oxaliplatin (measurement of IC50 values) of the human colorectal cancer cell lines into which siRNA had been introduced, was performed by the method described in Test Example 1(1)(c).

[2] = test system: HT29 into which siRNA had been introduced; assay: as above; conditions: for sensitivity to oxaliplatin compared to the case where the control siRNA had been introduced: HT29, 150 pmol siRNA per well
Description: as §1, §2, §3, §4, §5

[3] = test system: HCT116 into which siRNA had been introduced; assay: as above; conditions: for sensitivity to oxaliplatin compared to the case where the control siRNA had been introduced: HCT116, 150 pmol siRNA per well
Description: as §1, §2, §3, §4, §5

[4] = test system: DLD-1 into which siRNA had been introduced; assay: as above
Description: as §1, §2, §3, §4, §5

[5] = test system: Lovo; assay: Sensitivity to oxaliplatin, MTS assay; conditions: 48 hours of drug exposure, cell survival rate by MTS assay
Description: (§6) Nine human colorectal cancer cell lines (SW480, Ls174T, Lovo, SW620, HCT116, HCT15, HT29, DLD-1, and WiDr) were obtained from the following sources (Table 1).
(§7) Culture was carried out under the conditions of 0100 mm/Tissue Culture Dish (IWAKI), culture medium (D-MEM, 2 mM Glutamine, 10% Fetal Bovine Serum), 37° C., and 5% CO2.
as §1

[6] = test system: HCT116; assay: Sensitivity to oxaliplatin, MTS assay; conditions: HCT116, 48 hours of drug exposure, cell survival rate by MTS assay
Description: as §6, §7, §1

[7] = test system: SW480; assay: Sensitivity to oxaliplatin, MTS assay; conditions: SW480, 48 hours of drug exposure, cell survival rate by MTS assay
Description: as §6, §7, §1

[8] = test system: SW620; assay: Sensitivity to oxaliplatin, MTS assay; conditions: SW620, 48 hours of drug exposure, cell survival rate by MTS assay
Description: as §6, §7, §1

[9] = test system: DLD-1; assay: Sensitivity to oxaliplatin, MTS assay; conditions: DLD-1, 48 hours of drug exposure, cell survival rate by MTS assay
Description: as §6, §7, §1

[10] = test system: HCT15; assay: Sensitivity to oxaliplatin, MTS assay; conditions: HCT15, 48 hours of drug exposure, cell survival rate by MTS assay
Description: as §6, §7, §1

[11] = test system: WiDr; assay: Sensitivity to oxaliplatin, MTS assay; conditions: 48 hours of drug exposure, cell survival rate by MTS assay
Description: as §6, §7, §1

[12] = test system: HT29; assay: Sensitivity to oxaliplatin, MTS assay; conditions: HT29, 48 hours of drug exposure, cell survival rate by MTS assay
Description: as §6, §7, §1

[13] = test system: Ls174T; assay: Sensitivity to oxaliplatin, MTS assay; conditions: 48 hours of drug exposure, cell survival rate by MTS assay
Description: as §6, §7, §1

Compound: PHB siRNA: siRNA CGUGGGUACAGAAACCAAUtt (life technologies, s10424), SEQ ID NO: 1 (CGUGGGUACAGAAACCAAUTT; chemistry not given here)
- sensitivity to oxaliplatin compared to the case where the control siRNA had been introduced [1]: decreased
- sensitivity to oxaliplatin compared to the case where the control siRNA had been introduced [2]: decreased
- sensitivity to oxaliplatin compared to the case where the control siRNA had been introduced [3]: decreased
- sensitivity to oxaliplatin compared to the case where the control siRNA had been introduced ([4]; DLD-1, 150 pmol siRNA per well): decreased

Compound: O=C1[O][Pt]2([NH][C@@H]3CCCC[C@H]3[NH]2)[O]C1=O [oxaliplatin, (SP-4-2)-[(1R,2R)-cyclohexane-1,2-diamine-κN, κN′] [ethanedio ato(2-)-κO^1, κO^2]platinum]
- IC50 ([1]; Control siRNA introduced): 860 nM and 680 nM
- IC50 ([1]; IPYR siRNA introduced): 390 nM
- IC50 ([1]; PHB siRNA introduced): 11900 nM
- IC50 ([1]; TALDO siRNA introduced): 430 nM
- IC50 ([2]; HT29, ANXA5 siRNA introduced): 5350 nM
- IC50 ([2]; HT29, Control siRNA introduced): 16100 nM
- IC50 ([2]; HT29, PHB siRNA introduced): 41900 nM
- IC50 ([2]; HT29, TALDO siRNA introduced): 2770 nM
- IC50 ([3]; HCT116, ANXA5 siRNA introduced): 760 nM
- IC50 ([3]; HCT116, C1QBP siRNA introduced): 2180 nM
- IC50 ([3]; HCT116, Control siRNA introduced): 1720 nM and 1390 nM and 1530 nM and 1340 nM
- IC50 ([3]; HCT116, PHB siRNA introduced): 21500 nM
- IC50 ([3]; HCT116, TALDO siRNA introduced): 730 nM
- IC50 ([4]; DLD-1, Control siRNA introduced): 14700 nM
- IC50 ([4]; DLD-1, PHB siRNA introduced): 52300 nM
- IC50 [5]: 790 ± 180 nM
- IC50 [6]: 1150 ± 340 nM
- IC50 [7]: 430 ± 130 nM
- IC50 [8]: 1140 ± 740 nM
- IC50 [9]: 13900 ± 6290 nM
- IC50 [10]: 1450 ± 440 nM
- IC50 [11]: 17700 ± 8390 nM
- IC50 [12]: 7990 ± 2660 nM
- IC50 [13]: 610 ± 110 nM

Compound: C1QBP siRNA: siRNA GGCCUUAUAUGACCACCUAtt (life technologies, s2139), SEQ ID NO: 4 (GGCCUUAUAUGACCACCUATT; chemistry not given here)
- sensitivity to oxaliplatin compared to the case where the control siRNA had been introduced [3]: decreased

Compound: TALDO siRNA: siRNA UGCUAUUGAUAAACUUUUUtt (life technologies, s13776), SEQ ID NO: 3 (UGCUAUUGAUAAACUUUUUTT; chemistry not given here)
- sensitivity to oxaliplatin compared to the case where the control siRNA had been introduced [1]: enhanced
- sensitivity to oxaliplatin compared to the case where the control siRNA had been introduced [2]: enhanced
- sensitivity to oxaliplatin compared to the case where the control siRNA had been introduced [3]: enhanced

Compound: IPYR siRNA: siRNA GGAAUCAGUUGCAUGAAUAtt (life technologies, s10878), SEQ ID NO: 5 (GGAAUCAGUUGCAUGAAUATT; chemistry not given here)
- sensitivity to oxaliplatin compared to the case where the control siRNA had been introduced [1]: enhanced

Compound: ANXA5 siRNA: siRNA GUACAUGACUAUAUCAGGAtt (life technologies, s1392), SEQ ID NO: 2 (GUACAUGACUAUAUCAGGATT; chemistry not given here)
- sensitivity to oxaliplatin compared to the case where the control siRNA had been introduced [2]: enhanced
- sensitivity to oxaliplatin compared to the case where the control siRNA had been introduced [3]: enhanced
